According to patent US20250025444A1, “TREATMENT OF NEURODEGENERATIVE DISEASES VIA ADMINISTRATION OF BUNTANETAP AND A PHOSPHODIESTERASE INHIBITOR” (ANNOVIS BIO, INC., priority 2022, published 2025):
Marks after values point to notes of the source that are not given here.

How the values were obtained:
[1] = system: mouse hippocampal slices perfused with 200 nM oligomeric Aβ; test: Electrophysiological analysis (LTP, CA1 fEPSP) of hippocampal slices perfused with oligomeric Aβ; assay type: cell-based, C57BI6 mice; conditions: for Aβ-induced LTP defect: 200 nM oligomeric Aβ
Description: Animals: C57BI6 mice of both sexes were used for these experiments. They were obtained by a breeding colony maintained at the animal facility of Columbia University.
Aβ was prepared as previously described (Stine at al, J Biol Chem. 2003).
Electrophysiological Analysis was performed on […] hippocampal slices, cut with a tissue chopper and maintained in an interface chamber at 29° C. for 90 min prior to recording. Briefly, CA1 fEPSPs were recorded by placing both the stimulating and the recording electrodes in CA1 stratum radiatum. Basal synaptic transmission was assayed, either by plotting the stimulus voltages against slopes of fEPSP, or by plotting the peak amplitude of the fiber volley against the slope of the fEPSP. A 10 min baseline was recorded every min at an intensity that evokes a response, ˜35% of the maximum evoked response in the presence of vehicle. Then slices were either perfused with 200 nM oligomeric Aβ or vehicle with or without compound for 20 min prior to applying a theta burst stimulation (4 pulses at 100 Hz, with the bursts repeated at 5 Hz and each tetanus including 3 ten-burst trains separated by 15 sec). Data was subjected to statistical analyses to determine the effects of combination on inhibiting synaptic dysfunction.
Slices were coded to blind investigators with respect to treatment. Results were expressed with Standard Error of the Mean (SEM). Level of significance was set for p<0.05. Results were analyzed by ANOVA analysis with post-hoc correction.

[2] = system: early AD patients and early PD patients; conditions: cited from earlier work
αSYN [3] = conditions: neuroblastoma cells; cited from earlier work
APP and its fragments [4] = test: APP in vivo: APP/PS1 transgenic AD mice, hippocampus
Source text: (§1) Buntanetap's effect on neurotoxic proteins.
FIG. 2A, APP in vivo. […] GAPDH and Synaptophysin were loading controls. FIG. 2 also includes a collection of graphs showing relative density of APP plotted against control and time after buntanetap treatment; relative density of CTFβ plotted against control and time after buntanetap treatment; relative density of CTFα plotted against control and time after buntanetap treatment; Aβ42 levels in brain tissue plotted against control and time after buntanetap treatment; and Aβ40 levels in brain tissue plotted against control and time after buntanetap treatment. Finally, FIG. 2 also includes a Western blot showing levels of APP, NSB, CTFβ, and CTFα after buntanetap treatment over time (minutes).

APP and its fragments [5] = conditions: APP/PS1 transgenic mice, literature report; cited from earlier work
[6] = system: APP/PS1 transgenic (tg) mouse model of AD; conditions: cited from earlier work
[7] = system: Ts65dn mouse model of Down syndrome (DS); conditions: cited from earlier work
[8] = cited from earlier work
[9] = system: fully differentiated Down syndrome nerve cells; conditions: cited from earlier work
[10] = system: APP, Tau, and αSYN in the cerebrospinal fluid (CSF); test: Study of MCI subjects: CSF and plasma markers before and after 10 days of buntanetap (proof of mechanism); conditions: 4×60 mg/day
rat acute glaucoma model = conditions: cited from earlier work
[11] = system: early AD patients and early PD patients; test: Phase 2a double-blind, placebo-controlled study in early AD and early PD patients; assay type: in vivo, human
[12] = system: human SNCAA53T tg mouse model of PD; conditions: cited from earlier work
[13] = system: patients with mild to moderate AD; test: Randomized, double-blind, placebo-controlled Phase II/III study in mild to moderate AD (NCT05686044); assay type: in vivo, human
Description: A randomized, double-blind, placebo-controlled Phase II/III study trial investigating the efficacy, safety, and tolerability of buntanetap in patients with mild to moderate AD was conducted. This was a dose-ranging study where patients received either one of three doses of buntanetap (7.5 mg, 15 mg, or 30 mg) or placebo on top of their standard of care for 12 weeks. In this study, over 700 patients were screened, a total of 353 patients were enrolled, and 325 patients completed the study across 54 sites in the US. The study included mild to moderate AD patients whose Mini Mental State Examination (MMSE) scores at baseline ranged from 14 to 24. (www.clinicaltrials.gov (NCT05686044)).
Beyond safety, the trial assessed the changes in two co-primary endpoints: Alzheimer's Disease Assessment Scale-Cognitive Subscale 11 (ADAS-Cog 11) and Alzheimer's Disease Cooperative Study Clinician's Global Impression of Change (ADCS-CGIC), which assess cognition and activities of daily living. The study monitored for safety and collected plasma to measure several biomarkers to assess the disease state, potential disease progression, and treatment effects.

clinical = conditions: human, brain (relative to plasma)
αSYN [14] = conditions: transgenic Parkinson's animals, brain and gut; cited from earlier work
APP [15] = conditions: literature report; cited from earlier work
tau [16] = conditions: Human tau mice, unpublished observation; cited from earlier work
tau [17] = conditions: unpublished observation, Peter Davies Laboratory; cited from earlier work
[18] = system: traumatic brain injury rats; conditions: cited from earlier work
[19] = system: APP, Tau, and αSYN in the cerebrospinal fluid (CSF); conditions: cited from earlier work
APP [20] = test: APP in vitro, Western blot in SH-SY-5Y human neuroblastoma cells; assay type: cell-based; conditions: SH-SY-5Y cells, 0, 0.1, 1, 5 and 10 μM
Source text: as §1

[21] = 3 phase 3 clinical studies, failed; cited from earlier work
[22] = in vivo; cited from earlier work

COc1ccc(CNc2c(CO)cnc3c(C4CC4)cc(C#N)cc23)cc1Cl [7a, 4-[(3-Chloro-4-methoxybenzyl)amino]-8-cyclopropyl-3-(hydroxymethyl) quinoline-6-carbonitrile]
Aβ-induced LTP defect ([1]; 7a 1 nM alone): did not ameliorate
% Improvement (based on change in Residual Potential; veh minus wt ab = 100%) ([1]; ab + 7a 1 nM): 14.23%
Residual Potential (mean) ([1]; ab + 7a 1 nM): 147.78
% Improvement (based on change in Residual Potential; veh minus wt ab = 100%) ([1]; ab + 7a 10 nM): 59.63%
Residual Potential (mean) ([1]; ab + 7a 10 nM): 174.99
% Improvement (based on change in Residual Potential; veh minus wt ab = 100%) ([1]; ab + 7a 50 nM): 106.8%
Residual Potential (mean) ([1]; ab + 7a 50 nM): 207.77

CN1CC[C@]2(C)c3cc(OC(=O)Nc4ccccc4)ccc3N(C)C12 (single isomer, unassigned) [buntanetap]
levels of neurotoxic proteins and inflammatory factors (biomarker data) ([2]; AD and PD cohorts): trend in lowering
ADAS-Cog11 and WAIS coding ([2]; AD patients): statistically significant improvements
MDS-UPDRS and WAIS coding ([2]; PD patients): statistically significant improvements
safety and tolerability ([2]; doses up to 80 mg, AD and PD patients): well tolerated
Cmax and AUC ([2]; plasma, up to 80 mg QD): increased with dose without evidence for a plateau
αSYN in vitro (αSYN [3]): lowers
duration of reduction of APP and all related peptides in hippocampus after the last dose (APP and its fragments [4]; APP/PS1 mice): at least 9 hours
APP and its fragments in hippocampus (APP and its fragments [4]; APP/PS1 transgenic AD mice): reduced
levels of APP and all its fragments (APP and its fragments [5]): lowers
memory and learning ([6]; APP/PS1 tg mouse model of AD): Restored
impaired synaptic transmission ([6]; hippocampus of APP/PS1 tg mice): Normalized
memory and learning [7]: Restored
tolerability ([8]; doses up to 4×60 mg daily×10 days): well tolerated
terminal half-life ([8]; plasma, all doses, cleared biphasically): 4.3 to 4.7 h
anterograde and retrograde vesicle transport [9]: Normalized
levels of APP, Tau, and αSYN in the cerebrospinal fluid (CSF) [10]: normalized
retina (rat acute glaucoma model; acute glaucoma): Preserved
nerve cell protection (rat acute glaucoma model; rat acute glaucoma model): protected
axonal and synaptic function ([11]; AD and PD patients): improved
blood brain barrier passage ([11]; AD and PD patients): crossed the blood brain barrier
inflammatory markers ([11]; AD and PD patients): reduced
neurotoxic protein biomarkers ([11]; AD and PD patients): reduced
cognition as measured by ADAS-Cog11 and WAIS coding speed ([11]; AD patients, 80 mg QD, significant versus baseline): improved
motor function as measured by MDS-UPDRS (Part II, III, IV and total) ([11]; PD patients, all doses 5-80 mg QD, maximum improvement for 10 & 20 mg): improved
WAIS speed and accuracy ([11]; PD patients, significant versus placebo at 5 mg, 20 mg and 80 mg): improved
colonic motility [12]: Restored
Non-Responders (Number) ([13]; 7.5 mg): 5
Non-Responders (Percentage) ([13]; 7.5 mg): (26.32%)
Responders (Number) ([13]; 7.5 mg): 14
Responders (Percentage) ([13]; 7.5 mg): (73.68%)**
Non-Responders (Number) ([13]; 15 mg): 7
Non-Responders (Percentage) ([13]; 15 mg): (28.00%)
Responders (Number) ([13]; 15 mg): 18
Responders (Percentage) ([13]; 15 mg): (72.00%)**
Non-Responders (Number) ([13]; 30 mg): 3
Non-Responders (Percentage) ([13]; 30 mg): (12.50%)
Responders (Number) ([13]; 30 mg): 21
Responders (Percentage) ([13]; 30 mg): (87.50%)***
difference in the proportion of participants who improved relative to placebo ([13]; 30 mg group): three-fold
Kp (clinical): ~8
αSYN in vivo (αSYN [14]): lowers
levels of APP in vitro in neuroblastoma cells (APP [15]): lowers
% Improvement (based on change in Residual Potential; veh minus wt ab = 100%) ([1]; ab + buntanetap 1 μM): 26.7%
Residual Potential (mean) ([1]; ab + buntanetap 1 μM): 152.11
% Improvement (based on change in Residual Potential; veh minus wt ab = 100%) ([1]; ab + buntanetap 10 μM): 110.7%
Residual Potential (mean) ([1]; ab + buntanetap 10 μM): 210.49
Aβ-induced LTP defect ([1]; buntanetap 1 μM alone): did not ameliorate
tau in vivo (tau [16]): lowers
tau in vitro (tau [17]): lowers
inflammation ([18]; rat brain after TBI): lowered
impaired synaptic transmission ([18]; rat striatum after TBI): Normalized
nerve cell protection ([18]; rat substantia nigra after TBI): protected
memory and learning ([18]; traumatic brain injury rats): Preserved
duration of effect in lowering neurotoxic proteins and inflammation after the last dose ([19]; MCI subjects, CSF, 12 h sampling period): ≥ 12 h
CSF Aβ42 ([19]; MCI subjects): trend to lower
CSF levels of sAPPα, sAPPβ, t-tau, p-tau, and specific inflammatory markers ([19]; MCI subjects): significantly lowered
half-life in CSF ([19]; MCI subjects): > 12 h
inflammation ([19]; human CSF of MCI subjects): lowered
APP level (Western blot, in relation to Actin standard) (APP [20]): lowers APP in vitro in a dose-dependent manner

CN1CC[C@@]2(C)c3cc(OC(=O)Nc4ccccc4)ccc3N(C)[C@@H]12 [phenserine, (−)-N-phenylcarbamoyl eseroline]
side effects [21]: high cholinomimetic side effects

COc1ccc(CN=c2[nH]c(N3CCC[C@H]3CO)ncc2C(=O)NCc2ncccn2)cc1Cl [avanafil]
half-life [22]: about 5 hours
